Here are results for 14 molecules from ChEMBL document CHEMBL2203065, “Synthesis and glycosidase inhibitory activity of novel (2-phenyl-4H-benzopyrimedo[2,1-b]-thiazol-4-yliden)acetonitrile derivatives” (Bioorg Med Chem Lett, 2012).

As usually defined, the IC50 is the midpoint of a concentration-inhibition curve.

The nature of assay [1]: Inhibition of intestinal glucosidase in Swiss mouse intestinal extracts.
For assay [2], the target named is Lysosomal alpha-glucosidase (Mus musculus, UniProt P70699). As to the kind of experiment: Inhibition of liver glucosidase in Swiss mouse liver extracts.
Assay [3] deals with T1, Pancreatic alpha-amylase (Sus scrofa, UniProt P00690).
T1 sequence (P00690 whole entry): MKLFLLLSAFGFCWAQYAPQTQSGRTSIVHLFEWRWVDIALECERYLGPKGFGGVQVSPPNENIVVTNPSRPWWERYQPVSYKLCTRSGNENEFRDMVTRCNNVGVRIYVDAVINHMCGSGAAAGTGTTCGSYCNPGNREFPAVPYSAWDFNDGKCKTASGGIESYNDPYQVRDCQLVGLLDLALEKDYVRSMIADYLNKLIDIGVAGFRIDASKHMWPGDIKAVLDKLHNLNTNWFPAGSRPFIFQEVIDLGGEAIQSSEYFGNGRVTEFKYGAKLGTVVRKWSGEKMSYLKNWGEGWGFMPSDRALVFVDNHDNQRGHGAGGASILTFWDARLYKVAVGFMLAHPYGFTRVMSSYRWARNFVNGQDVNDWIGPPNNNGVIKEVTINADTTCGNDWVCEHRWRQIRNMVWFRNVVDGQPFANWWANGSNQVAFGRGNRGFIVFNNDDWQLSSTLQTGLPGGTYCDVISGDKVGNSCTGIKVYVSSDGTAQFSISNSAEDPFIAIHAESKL
As to the kind of experiment: Inhibition of porcine pancreatic alpha amylase using starch as substrate by Bernfeld method.

A short description of assay [4]: Inhibition of pancreatic glucosidase in Swiss mouse pancreatic extracts.

Lysosomal alpha-glucosidase, sequence (P70699 whole entry): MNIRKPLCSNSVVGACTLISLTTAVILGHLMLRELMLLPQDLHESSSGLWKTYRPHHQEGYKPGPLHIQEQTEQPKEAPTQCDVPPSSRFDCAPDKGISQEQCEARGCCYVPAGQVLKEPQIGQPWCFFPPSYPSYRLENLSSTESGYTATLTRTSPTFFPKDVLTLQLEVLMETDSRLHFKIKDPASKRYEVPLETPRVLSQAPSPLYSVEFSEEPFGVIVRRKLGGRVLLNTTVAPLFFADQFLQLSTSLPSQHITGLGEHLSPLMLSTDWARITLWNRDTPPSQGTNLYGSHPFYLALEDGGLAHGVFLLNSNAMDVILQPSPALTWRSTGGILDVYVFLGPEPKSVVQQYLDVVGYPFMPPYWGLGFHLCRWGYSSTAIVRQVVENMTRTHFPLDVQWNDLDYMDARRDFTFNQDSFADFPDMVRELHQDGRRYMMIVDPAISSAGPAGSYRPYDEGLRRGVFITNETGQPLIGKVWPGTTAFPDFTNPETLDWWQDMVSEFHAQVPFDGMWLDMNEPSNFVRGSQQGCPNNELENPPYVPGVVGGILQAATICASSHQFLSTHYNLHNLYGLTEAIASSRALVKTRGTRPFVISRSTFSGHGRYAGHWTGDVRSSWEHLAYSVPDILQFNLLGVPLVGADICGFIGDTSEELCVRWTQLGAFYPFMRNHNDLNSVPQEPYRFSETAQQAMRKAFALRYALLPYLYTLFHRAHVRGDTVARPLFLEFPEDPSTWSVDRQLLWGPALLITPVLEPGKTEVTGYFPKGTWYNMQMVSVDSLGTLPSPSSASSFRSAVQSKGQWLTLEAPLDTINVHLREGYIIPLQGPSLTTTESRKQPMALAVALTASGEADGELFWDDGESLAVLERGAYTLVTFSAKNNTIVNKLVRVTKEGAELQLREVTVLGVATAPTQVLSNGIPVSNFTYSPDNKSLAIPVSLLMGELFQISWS

As to `N#C/C=C1\C=C(c2ccc(Br)cc2)N=C2Sc3ccccc3N21`, the IC50 entry was “Not Active” in assay [1], 28.2 µM in assay [2], 15.3 µM in assay [3] and 23 µM in assay [4].
For the molecule `N#C/C=C1\C=C(c2ccccc2)N=C2Sc3ccccc3N21`, the IC50 in assay [1] (read-out: IC50) turned out to be 32.6 µM; in assay [2], 23.5 µM; in assay [3], 23 µM; in assay [4], 21.4 µM.
As for `N#C/C=C1\C=C(c2ccc(Cl)cc2)N=C2Sc3ccccc3N21`, the IC50 was found to be 17.6 µM in assay [1] (read-out: IC50), 22 µM in assay [2], 21.9 µM in assay [3] and 17.4 µM in assay [4].
For the molecule `N#C/C=C1\C=C(c2ccc(F)cc2)N=C2Sc3ccccc3N21`, the IC50 in assay [1] (read-out: IC50) turned out to be 37.3 µM; in assay [2], 25 µM; in assay [3], 24.4 µM; in assay [4], 17.5 µM.
For the molecule `COc1ccc2c(c1)SC1=NC(c3ccc(F)cc3)=C/C(=C\C#N)N12`, the IC50 is 30.4 µM in assay [1] (read-out: IC50), 21.1 µM in assay [2], 20.6 µM in assay [3] and 19 µM in assay [4].
Taken in the same sequence, the figures for `N#C/C=C1\C=C(c2ccc3ccccc3c2)N=C2Sc3ccccc3N21` were 22.6 µM, 21.2 µM, 19.9 µM and 22.9 µM.
On to `COc1ccc2c(c1)SC1=NC(c3ccc4ccccc4c3)=C/C(=C\C#N)N12`, for which the concentration for half-maximal inhibition (IC50) in assay [1] (read-out: IC50) worked out at 62.5 µM; in assay [2], 15.9 µM; in assay [3] it was 18.7 µM; in assay [4] it was 30.3 µM.
Turning to `COc1ccc2c(c1)SC1=NC(c3ccc(Cl)cc3)=C/C(=C\C#N)N12`, the IC50 in assay [1] (read-out: IC50) was determined as 25.9 µM; in assay [2], 19.7 µM; in assay [3], 20.2 µM; in assay [4], 20.7 µM.
With `Cc1ccc(C2=C/C(=C\C#N)N3C(=N2)Sc2ccccc23)cc1`, the IC50 in assay [1] (read-out: IC50) was 36.1 µM; in assay [2], 20.3 µM; in assay [3] it was 23.2 µM; in assay [4], 34.9 µM.
Consider `COc1ccc2c(c1)SC1=NC(c3ccc(C)cc3)=C/C(=C\C#N)N12`, for which the IC50 is 27.4 µM in assay [1] (read-out: IC50), 18.3 µM in assay [2], 19.5 µM in assay [3] and 29.5 µM in assay [4].
With `COc1ccc2c(c1)SC1=NC(c3ccccc3)=C/C(=C\C#N)N12`, the IC50 in assay [1] (read-out: IC50) stood at 41.6 µM; in assay [2], 25 µM; in assay [3], 22.3 µM; in assay [4], 29.2 µM.
As to `CCOc1ccc2c(c1)SC1=NC(c3ccccc3)=C/C(=C\C#N)N12`, the IC50 in assay [1] (read-out: IC50) was determined as 38.6 µM; in assay [2], 18.7 µM; in assay [3], 21.8 µM; in assay [4], 46.1 µM.
With `COc1ccc2c(c1)SC1=NC(c3ccc(Br)cc3)=C/C(=C\C#N)N12`, the IC50 in assay [1] (read-out: IC50) is 30.5 µM; in assay [2] it was 14.1 µM; in assay [3], 17.4 µM; in assay [4], 33.8 µM.
`C[C@H]1O[C@H](O[C@H]2[C@H](O)[C@@H](O)[C@@H](O[C@H]3[C@H](O)[C@@H](O)C(O)O[C@@H]3CO)O[C@@H]2CO)[C@H](O)[C@@H](O)[C@@H]1N[C@H]1C=C(CO)[C@@H](O)[C@H](O)[C@H]1O` (stereo not given in full) [ACARBOSE]: the IC50 result in assay [1] was “Not Active”; in assay [2], greater than 100 µM; in assay [4] it was greater than 100 µM.
